Measurements reported in paper PMC4430599, “Population pharmacokinetics of intravenous and oral panobinostat in patients with hematologic and solid tumors” (European Journal of Clinical Pharmacology, 2015).

Key:
[1] = Population pharmacokinetic analysis (NONMEM), first final model; assay type: in vivo, patients
Text: (§1) A population PK data set was constructed from 581 patients with advanced hematologic and solid tumors who participated in 14 phase 1 and phase 2 studies of panobinostat (Table 1). Studies A2101 and A2102 used IV panobinostat, whereas all other studies examined oral formulations of panobinostat. The CSF was used in two of the oral panobinostat studies, B2101and B2102, whereas the remaining studies used the FMI formulation. The two phase 1 dose-escalation studies of IV panobinostat used doses of 1.2 to 20 mg/m^2 daily administered under various intermittent regimens. In three phase 1 dose-escalation studies, patients received oral panobinostat at doses ranging from 10 to 80 mg/day (administered weekly on days 1, 3, and 5; or every other week; or on days 1 and 4 every week). In five phase 2 studies, patients with cutaneous T cell lymphoma, chronic myeloid leukemia, and multiple myeloma received 20 mg panobinostat orally per day on days 1, 3, and 5 weekly. In three clinical pharmacology studies, patients received oral panobinostat at 20 mg under various regimens for study-specific purposes: in cycle 1 followed by 20 mg per day (days 1, 3, and 5 weekly) or 45 mg (days 1 and 4 weekly) in subsequent cycles. In a phase 2 study of Hodgkin lymphoma, patients received 40 mg panobinostat on days 1, 3, and 5 weekly.
(§2) PK sampling generally occurred from predose through 48 h after each oral dose or predose through 24 h after each IV dose. Panobinostat was precipitated from plasma samples, evaporated to dryness, reconstituted with 10 % aqueous acetonitrile (containing 0.2 % formic acid), and analyzed by liquid chromatography–tandem mass spectrometry assay. The assay was linear from 0.5 to 500 ng/mL [15], and the bias and coefficient of variation (CV) values of the quality-control sample results ranged from −0.7 to 0.7 % and 2.3 to 11.6 %, respectively. The lower limit of quantification of panobinostat was 0.5 ng/mL for all studies except B2201 and B2203, for which it was 0.1 ng/mL. Values below the lower limit of quantification (6 % of the total) were excluded.
The data sets for modeling were prepared using SAS version 9.2. The time of panobinostat dosing or collection of blood was computed based on the date and time when available. When the date or time was unknown, collection times were estimated based on time of examinations or schedule in the protocol. Demographic information, including age, body weight, height, sex, and race, was collected at screening and used in the analysis. […] BSA (m^2) was computed via the Gehan–George formula as 234.94×Weight^0.515×Height^0.422/10000 where weight is in kilograms and height is in centimeters. […] was computed via the Cockroft–Gault formula as 140−Age×Weight×0.85forfemales/72×Creatinine/88.4 where creatinine was in micromoles per liter.
The model was developed based on the methods described by Wahlby and colleagues. Scatterplots used to visualize the plasma concentration vs. time profile were generated using R version 2.8.1 and SAS version 9.2. PK model building was conducted using the first-order conditional estimation method with INTERACTION (FOCEI) option, using the default three significant digits for convergence, within the software program nonlinear mixed-effect modeling (NONMEM) extended version VI and version VII. Random interindividual variability parameters were estimated using exponential parameterization. The exponential error models ensured that parameter estimates were within reasonable physiological bounds; negative values were not possible. Model selection criteria were based on both objective function values (OFVs), as generated by NONMEM, and graphic diagnostic plots. For each model analyzed, NONMEM calculated the minimum value of the OFV—a statistic that, up to an additive constant, is minus twice the log likelihood of the data. […]

[2] = parameters: method as in PMID 25939707; conditions: cited from earlier work
[3] = parameters: method as in PMID 16899611; conditions: IV, highest dose administered 14 mg/m^2; refractory hematologic tumors; cited from earlier work
CYP3A4 = system: CYP3A4; parameters: method as in PMID 21706316; conditions: coadministered CYP3A4 inhibitor; cited from earlier work
[4] = parameters: method as in PMID 25377157; conditions: patients with solid tumors with normal renal function; cited from earlier work
[5] = parameters: method as in ref 22 (a number printed in a supplementary file, which may have a reference list of its own: not looked up in the article's list); conditions: second final model; allometric exponent of weight on V2, assumed, no bootstrap; cited from earlier work
[6] = parameters: method as in ref 17 = [17]; 17. Woo MM, Culver K, Li W, Liu A, Scott J, Parker K, Jalaluddin M, Laird G, Cooper MR, Schran HF (2008) Panobinostat (LBH589) pharmacokinetics (PK): implications for clinical safety and efficacy. Ann; conditions: oral, 60 mg; cited from earlier work
[7] = parameters: method as in PMID 22864948; conditions: cited from earlier work
[8] = Population pharmacokinetic analysis (NONMEM), second final model; assay type: in vivo, patients
Text: as §1, §2
The model was developed based on the methods described by Wahlby and colleagues. Scatterplots used to visualize the plasma concentration vs. time profile were generated using R version 2.8.1 and SAS version 9.2. PK model building was conducted using the first-order conditional estimation method with INTERACTION (FOCEI) option, using the default three significant digits for convergence, within the software program nonlinear mixed-effect modeling (NONMEM) extended version VI and version VII. Random interindividual variability parameters were estimated using exponential parameterization. The exponential error models ensured that parameter estimates were within reasonable physiological bounds; negative values were not possible. Model selection criteria were based on both objective function values (OFVs), as generated by NONMEM, and graphic diagnostic plots. For each model analyzed, NONMEM calculated the minimum value of the OFV—a statistic that, up to an additive constant, is minus twice the log likelihood of the data. When two models are nested and the additional parameters of the larger model are not needed, the difference in their minimum OFV is asymptotically χ^2 distributed, with the number of degrees of freedom equal to the number of parameters not common to the two models. The likelihood ratio test compared the two models on the basis of the difference in their OFV values.
PK data from both the IV and oral routes were fitted simultaneously in order to allow for estimation of the oral bioavailability. Several models were explored, including two-compartment and three-compartment models with first-order elimination. […]

plasma protein = conditions: independent of the drug concentration in plasma; no reference given; cited from earlier work

Cc1[nH]c2ccccc2c1CCNCc1ccc(/C=C/C(=O)NO)cc1 [panobinostat]
dose proportionality of PK ([1]; dose range of 10 to 80 mg across the 14 studies, CL and V2 related to dose): dose proportional | K23 ([1]; first final model): 1.810 h⁻¹ | K24 ([1]; first final model): 1.424 h⁻¹ | K32 ([1]; first final model): 0.507 h⁻¹ | K42 ([1]; first final model): 0.040 h⁻¹ | interindividual (inter-patient) variability in clearance ([1]; first final model): 74% | OM.CLV2 (Omega 2,1) ([1]; first final model, covariance CL-V2): 0.178 | V2.BSA ([1]; first final model, exponent of (BSA/1.9) on V2): 1.359 | V2.AGE ([1]; first final model, exponent of (age/61) on V2): 0.396 | OM.V2 (Omega 2,2) ([1]; first final model, interindividual variance of V2): 0.334 | V2.ASIAN ([1]; first final model, multiplicative factor on V2, Asian vs Caucasian): 1.373 | V2.BLACK ([1]; first final model, multiplicative factor on V2, black vs Caucasian): 1.241 | V2.OTHER ([1]; first final model, multiplicative factor on V2, other race vs Caucasian): 1.127 | F1 (bioavailability) ([1]; first final model, oral, fraction): 0.214 | CL (clearance) ([1]; first final model, patient with BSA 1.9 m^2): 33.085 L/h | V2 (volume of the central compartment) ([1]; first final model, reference BSA 1.9 m^2, age 61, Caucasian): 24.838 L | clearance ([1]; human, plasma, other: IV and oral routes fitted simultaneously, first final model, patient with BSA 1.9 m^2, read-out: CL (clearance) (converted)): 552 mL/min | half-life ([1]; human, plasma, other: IV and oral routes fitted simultaneously, calculated based on the final parameter estimates, read-out: terminal half-life (converted)): ~37 h | bioavailability ([1]; human, plasma, first final model, oral, read-out: absolute bioavailability): 21.4% | panobinostat exposure with liver impairment [2]: significant increases | maximum concentration (Cmax, mean ± SD) [3]: 565.6 ± 450.9 ng/mL | panobinostat exposure with ketoconazole (CYP3A4): significant increases | fraction excreted unchanged in the urine [4]: < 2.5% | V2.WT [5]: 1.000 | mean Cmax [6]: 71 ng/mL | number of circulating metabolites [7]: approximately 40 | OM.CLV2 (Omega 2,1) ([8]; covariance CL-V2): 0.151 | OM.Q3V3 (Omega 4,3) ([8]; covariance Q3-V3): 0.505 | OM.Q4V4 (Omega 6,5) ([8]; covariance Q4-V4): 0.556 | Q3.AGE ([8]; exponent of (age/61) on Q3): 0.410 | Q4.AGE ([8]; exponent of (age/61) on Q4): 0.212 | V2.AGE ([8]; exponent of (age/61) on V2): -0.005 | V3.AGE ([8]; exponent of (age/61) on V3): 0.713 | V4.AGE ([8]; exponent of (age/61) on V4): 0.530 | bioavailability ([8]; human, plasma, oral, fraction, read-out: F1 (bioavailability)): 19.4% | clearance ([8]; human, plasma, other: intravenous and oral, fitted simultaneously, reference weight 70 kg, age 61, Caucasian): 481 mL/min | OM.Q3 (Omega 3,3) ([8]; interindividual variance of Q3): 0.666 | OM.Q4 (Omega 5,5) ([8]; interindividual variance of Q4): 0.497 | OM.V2 (Omega 2,2) ([8]; interindividual variance of V2): 1.668 | OM.V3 (Omega 4,4) ([8]; interindividual variance of V3): 0.441 | OM.V4 (Omega 6,6) ([8]; interindividual variance of V4): 0.700 | V2.ASIAN ([8]; multiplicative factor on V2, Asian vs Caucasian): 2.060 | V2.BLACK ([8]; multiplicative factor on V2, black vs Caucasian): 1.817 | V2.OTHER ([8]; multiplicative factor on V2, other race vs Caucasian): 0.835 | V3 (peripheral volume) ([8]; reference weight 70 kg, age 61): 71.874 L | V4 (peripheral volume) ([8]; reference weight 70 kg, age 61): 803.193 L | V2 ([8]; reference weight 70 kg, age 61, Caucasian): 30.862 L | plasma protein binding (plasma protein): 90%
